Experimental data as given in BindingDB's records for doi:10.3109/14756366.2011.584535 (Balikesir University, 2012).

Key:
Carbonic anhydrase 2 = Carbonic anhydrase 2 (Homo sapiens, UniProt P00918); assay: CA Enzyme Assay
Description: (§1) CA activity was measured by the Maren method which is based on determination of the time required for the pH to decrease from 10.0 to 7.4 due to CO2 hydration [Maren et al., J. Pharm. Exp. Ther., 130:2629-2634].

Carbonic anhydrase 1 = Carbonic anhydrase 1 (Homo sapiens, UniProt P00915); assay: CA Enzyme Assay
Sequence of Carbonic anhydrase 1 (P00915 whole entry): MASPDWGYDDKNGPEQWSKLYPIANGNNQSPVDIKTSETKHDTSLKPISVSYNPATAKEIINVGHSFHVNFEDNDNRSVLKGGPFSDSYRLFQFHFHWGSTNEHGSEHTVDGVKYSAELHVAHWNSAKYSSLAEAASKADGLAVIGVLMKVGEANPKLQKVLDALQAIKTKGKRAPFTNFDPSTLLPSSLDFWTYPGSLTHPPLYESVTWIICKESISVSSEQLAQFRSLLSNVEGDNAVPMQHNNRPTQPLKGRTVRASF
Description: as §1

Compound | IC50 (Carbonic anhydrase 2) [µM] | IC50 (Carbonic anhydrase 1) [µM]
CC/C(=C(/CC)c1ccc(O)cc1)c1ccc(O)cc1 | 89 | 94
CC12C=CC3=C4CCC(=O)C=C4CCC3C1CCC2O (stereo unspecified) [Trenbolone (2)] | 159 | 55
CC1CCCC(O)CCCCCc2cc(O)cc(O)c2C(=O)O1 (stereo unspecified) [Zeranol (4)] | 101 | 898
